Measurements published in US20140187556A1, “ANTI-AMYLOID COMPOUNDS AND METHODS” (Treventis Corporation, priority 2011, published 2014).
Where two headings read alike, the source gives them in different places.

Assays:
[1] = In vivo blood and brain exposure and brain/plasma ratio in ICR mice; conditions: male ICR mice
Procedure: TRV 1140 was formulated in 3% N-methyl-2-pyrrolidone, 0.5% Cremaphor, 50% olive oil in water. The compound was formulated at a concentration of 2 mg/mL and dosed in a volume of 10 mL/kg to produce a dose of 20 mg/kg. The formulation was an emulsion. Compound was formulated fresh daily. Mice were dosed once daily for three days. Male ICR mice (S.A. Ace Animals; Boyertown, Pa.) were used for this experiment. Animals were group housed and kept on a standard 12 hr light cycle. Food and water were available ad libitum. On the third day mice were dosed with compound. At the designated time after 20 mg/kg dosing (30 min, 2 hrs, 4 hrs), whole blood was collected via the retro-orbital sinus in heparanized tubes and mixed with deionized water at a 1:1 ratio for hemolyzation. Hemolyzed blood was analyzed for levels of test agent. Blood samples were extracted by a standard protocol known in the art. At designated time points, mice were sacrificed. Brains were removed, weighed, and processed. Brains were homogenized and test agent extracted with an acetonitrile homogenization method (1 mL acetonitrile: 1 g brain). Supernatant samples were stored at −80° C. for subsequent analysis of brain levels of test compound. Brain levels of test agent were analyzed by LC/MS/MS.

[2] = Metabolic stability in mouse liver microsomes; type: in vitro ADME; conditions: 1 μM compound, 0.5 mg/mL microsomal protein, 1 mM NADPH
Procedure: This assay is used to determine the percent remaining and intrinsic clearance of a test compound incubated with pooled mouse liver microsomes in the presence of NADPH. Further details on this method may be found in Jeffrey P, et al., Utility of metabolic stability screening: comparison of in vitro and in vivo clearance. enobiotica. 2001 August-September; 31(8-9):591-8 and Lin J H, et al., Role of pharmacokinetics and metabolism in drug discovery and development. Pharmacol Rev. 1997; 49(4):403-49; each of which is hereby incorporated by reference. Test compound was formulated in 300 μL of DMSO at 10 mM and was diluted to 1 μM with final concentration of organic solvent <0.25% for the experiment. Pooled liver microsomes were prepared from male mice, with 1 mM NADPH. Test compound was incubated at 37 degrees Celsius in buffer containing 0.5 mg/mL microsomal protein; the reaction was initiated by adding cofactors and sampled at 0, 10, 20, 30, and 60 minutes. A positive control (5 μM testosterone) was incubated and initiated in parallel for quality control. Samples were analyzed using an LTQ-Orbitrap XL mass spectrometer; HRMS was used to determine the peak area response ratio (peak area corresponding to test compound or control divided by that of an analytical internal standard) without running a standard curve.
Results were reported for selected compounds in the table of Example 1, as % test compound remaining after 60 minutes. Compounds which have less than about 5% remaining are not considered to be metabolically stable in mouse liver microsomes, while compounds with more than about 5% remaining are considered to be metabolically stable in mouse liver microsomes.

brain penetrance ([1]; 20 mg/kg): highly brain penetrable
time of maximum concentration (blood and brain) ([1]; 20 mg/kg once daily, third day): 4 h
total drug exposure in blood ([1]; 20 mg/kg once daily, third day, 0-4 hr): 450 ng·h/mL
total drug exposure in brain ([1]; 20 mg/kg once daily, third day, 0-4 hr, mean of two samples): 694 ng·h/mL
Cmax ([1]; mouse, brain, 20 mg/kg once daily, third day, read-out: Maximum concentration (Cmax) in brain): 238 ng/mL
Cmax ([1]; mouse, whole blood, 20 mg/kg once daily, third day, read-out: Maximum concentration (Cmax) in blood): 87.5 ng/mL
Stability in mouse liver microsomes (% test compound remaining after 60 min) [2]: 34%
Structure (SMILES): O=[N+]([O-])c1ccc(-c2cccc(C(O)C(F)(F)F)c2)cc1NCc1ccccc1 (centres unmarked) [TRV 1140, 1-(3′-(benzylamino)-4′-nitro-[1,1′-biphenyl]-3-yl)-2,2,2-trifluoroethanol]
Kp ([1]; mouse, brain / plasma (method describes hemolyzed whole blood), 20 mg/kg once daily, third day): 1.54
